According to PMC4300089, “Structure-Guided Design of Selective Epac1 and Epac2 Agonists” (PLoS Biology, 2015):
pEC50: −log10 of the molar value.

Legend:
Assay type in all cases: biochemical
[1] = target: T1, PKA-Iα (Homo sapiens, UniProt P10644); assay: PKA activity assay (coupled spectrophotometric, Kemptide), PKA-Iα; details: PKAIα
T1 construct: made in house
Procedure: (§1) The recombinant human PKA catalytic subunit (Cα1) and the four human PKA regulatory subunits (RIα, RIβ, RIIα, RIIβ) were expressed, purified, and characterized as described. […] PKA holoenzymes were formed by mixing the R- and C-subunit at a molar ratio of 1.2:1 and extensive dialysis against 20 mM MOPS (pH 7.0), 150 mM NaCl, 2.5 mM β-mercaptoethanol, supplemented with 1 mM ATP and 10 mM MgCl2 for PKA-I at 4°C overnight. PKA holoenzymes were used at about 20 nM for the activation assay. The apparent activation constants (Kact) were determined by fitting the concentration-dependent activity to a sigmoid dose-response model.

[2] = target: T2, PKA-IIα (Homo sapiens, UniProt P13861); assay: PKA activity assay, PKA-IIα; details: for A (PKA activity): PKAIIα
T2 construct: made in house
Procedure: as §1

[3] = target: T3, PKA-IIβ (Homo sapiens, UniProt P31323); assay: PKA activity assay, PKA-IIβ; details: PKAIIβ
T3 construct: made in house
Procedure: as §1

T1 sequence (P10644 whole entry): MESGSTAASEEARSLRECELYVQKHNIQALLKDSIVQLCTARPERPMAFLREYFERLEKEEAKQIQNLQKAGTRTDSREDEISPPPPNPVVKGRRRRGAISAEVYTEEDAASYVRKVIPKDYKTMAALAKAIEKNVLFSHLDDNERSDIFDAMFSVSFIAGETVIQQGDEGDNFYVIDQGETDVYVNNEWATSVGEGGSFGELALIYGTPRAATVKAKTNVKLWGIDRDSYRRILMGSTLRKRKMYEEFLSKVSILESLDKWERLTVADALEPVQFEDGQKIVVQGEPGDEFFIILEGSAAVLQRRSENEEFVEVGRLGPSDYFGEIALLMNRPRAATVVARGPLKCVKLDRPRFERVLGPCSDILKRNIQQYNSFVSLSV
T2 sequence (P13861 whole entry): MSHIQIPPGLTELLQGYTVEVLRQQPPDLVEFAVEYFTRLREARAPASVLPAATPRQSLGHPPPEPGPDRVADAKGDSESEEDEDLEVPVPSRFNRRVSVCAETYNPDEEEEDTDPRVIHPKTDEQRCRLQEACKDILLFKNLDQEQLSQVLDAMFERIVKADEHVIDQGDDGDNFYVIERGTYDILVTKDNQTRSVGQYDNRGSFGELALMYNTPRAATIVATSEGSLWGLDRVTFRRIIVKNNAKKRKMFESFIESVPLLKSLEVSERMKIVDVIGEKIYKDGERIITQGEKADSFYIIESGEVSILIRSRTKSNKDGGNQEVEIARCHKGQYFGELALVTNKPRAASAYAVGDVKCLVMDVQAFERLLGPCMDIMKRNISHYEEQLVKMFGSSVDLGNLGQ
T3 sequence (P31323 whole entry): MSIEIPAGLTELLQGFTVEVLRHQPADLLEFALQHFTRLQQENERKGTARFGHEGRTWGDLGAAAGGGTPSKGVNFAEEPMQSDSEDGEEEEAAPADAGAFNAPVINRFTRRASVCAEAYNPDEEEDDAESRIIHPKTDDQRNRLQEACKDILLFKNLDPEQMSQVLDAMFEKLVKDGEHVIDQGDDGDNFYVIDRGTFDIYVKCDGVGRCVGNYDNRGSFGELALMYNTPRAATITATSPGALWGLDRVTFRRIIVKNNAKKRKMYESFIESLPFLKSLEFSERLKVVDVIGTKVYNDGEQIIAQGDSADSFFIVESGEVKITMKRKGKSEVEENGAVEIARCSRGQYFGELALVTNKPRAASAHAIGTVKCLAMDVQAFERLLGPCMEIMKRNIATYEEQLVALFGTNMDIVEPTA

Row | SMILES | A (PKA activity) ([1]; concentration 1 μM) [U/mg] | A (PKA activity) ([1]; concentration 1.00E+01 μM) [U/mg] | A (PKA activity) ([1]; concentration 1.00E-01 μM) [U/mg] | A (PKA activity) ([1]; concentration 1.00E-02 μM) [U/mg] | A (PKA activity) ([1]; concentration 1.00E-03 μM) [U/mg] | A (PKA activity) ([1]; concentration 1.00E-05 μM) [U/mg] | A (PKA activity) ([2]; concentration 1 μM) [U/mg] | A (PKA activity) ([2]; concentration 1.00E+01 μM) [U/mg] | A (PKA activity) ([2]; concentration 1.00E-01 μM) [U/mg] | A (PKA activity) ([2]; concentration 1.00E-02 μM) [U/mg] | A (PKA activity) ([2]; concentration 1.00E-04 μM) [U/mg] | A (PKA activity) ([2]; concentration 1.00E-05 μM) [U/mg] | A (PKA activity) ([2]; concentration 2.50E+02 μM) [U/mg] | A (PKA activity) ([3]; concentration 1 μM) [U/mg] | A (PKA activity) ([3]; concentration 1.00E+01 μM) [U/mg] | A (PKA activity) ([3]; concentration 1.00E-01 μM) [U/mg] | A (PKA activity) ([3]; concentration 1.00E-02 μM) [U/mg] | A (PKA activity) ([3]; concentration 1.00E-03 μM) [U/mg] | A (PKA activity) ([3]; concentration 1.00E-05 μM) [U/mg] | also measured
1 | Cc1ccc(CSc2nc3c(N)ncnc3n2[C@@H]2O[C@@H]3CO[P@](O)(=S)O[C@H]3[C@H]2O)cc1 [S-230, Sp-8-pMeBnT-cAMPS] | 2.9904 | 1.9936 | 3.8864 | 2.632 | 3.2928 | 2.7664 | 8.2345 | 1.22E+01 | 5.026 | 4.542 | 5.243 | 3.782 | 1.76E+01 | 2.854 | 3.182 | 1.472 | 1.965 | 1.941 | 2.019 | A (PKA activity) ([1]; concentration 5.00E+02 μM): 2.9232 U/mg; A (PKA activity) ([2]; concentration 5 μM): 1.10E+01 U/mg; A (PKA activity) ([2]; concentration 1.00E+03 μM): 2.30E+01 U/mg; A (PKA activity) ([2]; concentration 5.00E+01 μM): 1.58E+01 U/mg; A (PKA activity) ([2]; concentration 5.00E+02 μM): 2.11E+01 U/mg; A (PKA activity) ([3]; concentration 5.00E+01 μM): 6.801 U/mg; A (PKA activity) ([3]; concentration 5.00E+02 μM): 9.038 U/mg
2 | Nc1ncnc2c1ncn2[C@@H]1O[C@@H]2COP(=O)(O)O[C@H]2[C@H]1O [cAMP, reference compound] | 2.37E+01 | 2.34E+01 | 1.43E+01 | 4.4268 | 1.4399 | 2.9393 | 2.29E+01 | 2.43E+01 | 1.58E+01 | 7.553 | 5.697 | 3.782 | 2.55E+01 | 2.14E+01 | 2.50E+01 | 1.13E+01 | 4.087 | 4.309 | 2.8563 | A (PKA activity) ([1]; concentration 1.00E+02 μM): 2.51E+01 U/mg; A (PKA activity) ([1]; concentration 2.50E-01 μM): 1.93E+01 U/mg; A (PKA activity) ([1]; concentration 2.50E-02 μM): 7.9492 U/mg; A (PKA activity) ([1]; concentration 5.00E-02 μM): 9.6152 U/mg; pEC50 ([2]; PKA-IIα, read-out: Kact): 7.10; A (PKA activity) ([2]; concentration 1.00E+02 μM): 2.52E+01 U/mg; A (PKA activity) ([2]; concentration 1.00E-03 μM): 5.677 U/mg; A (PKA activity) ([2]; concentration 2.50E-01 μM): 1.90E+01 U/mg; A (PKA activity) ([2]; concentration 2.50E-02 μM): 1.02E+01 U/mg; A (PKA activity) ([3]; concentration 1.00E+02 μM): 2.46E+01 U/mg; A (PKA activity) ([3]; concentration 1.00E-04 μM): 4.252 U/mg; A (PKA activity) ([3]; concentration 2.50E-01 μM): 1.57E+01 U/mg; A (PKA activity) ([3]; concentration 2.50E-02 μM): 5.477 U/mg; A (PKA activity) ([3]; concentration 5.00E-01 μM): 1.81E+01 U/mg; A (PKA activity) ([3]; concentration 5.00E-02 μM): 9.071 U/mg
